Data as given in US7109380B2, “Cyclopentenedione antifungal compounds and methods for their use” (The University of Mississippi, priority 2004, dated 2006).
Like-named read-outs stand apart in the source and are kept apart here.

How the values were obtained:
Experiment in all cases: Lethality bioassay on germinating conidia
Type in all cases: cell-based
[1] = system: Germinating Conidia of Fusarium moniliforme; details: for viability at 5 µM / viability at 10 µM / viability at 15 µM / viability at 20 µM / viability at 25 µM / viability at 30 µM: Fusarium verticillioides, read-out: Percent of Control Mean (viable colonies, Fusarium moniliforme)
Procedure: (§1) Pathogen production. Stock slant isolates of Aspergillus flavus, Fusarium oxysporum, and Fusarium moniliforme were grown on potato dextrose agar (Difco, Detroit, Mich.) slants for 7 days at room temperature (22° C.).
(§2) Inoculum preparation. Prior to a bioassay, 4 ml of 1% potato dextrose broth (PDB, Difco, Detroit, Mich.), pH 4.86, was added to a stock culture slant. The conidia were suspended by gentle agitation using the pipette tip and the population determined with the use of a hemocytometer. The conidia were then diluted to a 10^4 conidia/ml concentration and incubated for 8 hrs at 22° C. to obtain germinating conidia that were used in the bioassays.
(§3) Experimental design of lethality bioassays to determine activity of coruscanone A. Coruscanone A was diluted in 100% methanol with a further dilution in PDB to achieve a stock concentration of 0.032 μg/μl. Test mixtures of germinating conidia and compound 67 were made in sterile 500 μl Eppendorf (Brinkman, Westbury, N.Y.) microcentrifuge tubes. Final test concentrations of compound 67 were 0, 5, 10, 15, 20, 25, and 30 μM in a final volume of 250 μl (0.0635 μg/μl=1.0 μM/250 μl). After an incubation of 30 min, 16 hours and 24 hours at 22° C., aliquots (50 μl) of the each sample were spread on each of 4 PDA plates. The plates were incubated at 22° C. for 2 days and the developed, viable colonies were enumerated. Separate bioassays were also set up at the same time as that with the 30 min incubation period but incubated at 22° C. for 16 and 24 hours, respectively. These samples were spread as previously described and the developing, viable colonies enumerated. Bioassays were performed on three separate occasions per fungus (n=12). Statistical analysis was performed using SigmaPlot 9.0 (p<0.05).

[2] = system: Germinating conidia of Aspergillus flavus; details: for viability at 5 µM / viability at 10 µM / viability at 15 µM / viability at 20 µM / viability at 25 µM / viability at 30 µM: read-out: Percent of Control Mean (viable colonies, Aspergillus flavus)
Procedure: as §1, §2, §3

[3] = system: Germinating Conidia of Fusarium oxysporum; details: for viability at 5 µM / viability at 10 µM / viability at 15 µM / viability at 20 µM / viability at 25 µM / viability at 30 µM: read-out: Percent of Control Mean (viable colonies, Fusarium oxysporum)
Procedure: as §1, §2, §3

In the case of `COC(/C=C/c1ccccc1)=C1\C(=O)C=C(C)C1=O` [Compound 1, coruscanone A], the “Concentration at and above which significant and increasing lethality was observed” value ([1]; Fusarium moniliforme, 16 and 24 hours of incubation) is reported as at least 5 µM, the “Lethality to germinating conidia (in words)” value (shortened to “Lethality … (in words)”) ([1]; Fusarium moniliforme, 30 min incubation) is reported as “not significantly lethal” and the viability at 5 µM ([1]; 0.5 h) is reported as 106%. For the same compound, the viability at 10 µM ([1]; 0.5 h) was 85.4%, the viability at 15 µM ([1]; 0.5 h) was 114% and the viability at 20 µM ([1]; 0.5 h) was 102%. For the same compound, the viability at 25 µM ([1]; 0.5 h) was 99.7%, the viability at 30 µM ([1]; 0.5 h) was 90.8% and the viability at 5 µM ([1]; 16 h) was 12.5%. The viability at 10 µM ([1]; 16 h) was 6.1%, the viability at 15 µM ([1]; 16 h) was 5.3% and the viability at 20 µM ([1]; 16 h) was 2.7%. The viability at 25 µM ([1]; 16 h) was 2.1%, the viability at 30 µM ([1]; 16 h) was 1.6% and the viability at 5 µM ([1]; 24 h) was 38.6%. For the same compound, the viability at 10 µM ([1]; 24 h) was 7.4%, the viability at 15 µM ([1]; 24 h) was 4.2% and the viability at 20 µM ([1]; 24 h) was 3.9%. The viability at 25 µM ([1]; 24 h) was 2.2%, the viability at 30 µM ([1]; 24 h) was 1.3% and the viability at 5 µM ([2]; 0.5 h) was 109%. The viability at 10 µM ([2]; 0.5 h) was 86.6%, the viability at 15 µM ([2]; 0.5 h) was 98% and the viability at 20 µM ([2]; 0.5 h) was 78.9%. It also gave a viability at 25 µM ([2]; 0.5 h) of 70%, a viability at 30 µM ([2]; 0.5 h) of 66.5% and a viability at 5 µM ([2]; 16 h) of 75.2%. For the same compound, the viability at 10 µM ([2]; 16 h) was 76.4%, the viability at 15 µM ([2]; 16 h) was 45.4% and the viability at 20 µM ([2]; 16 h) was 39.1%. It also gave a viability at 25 µM ([2]; 16 h) of 30.5%, a viability at 30 µM ([2]; 16 h) of 19.5% and a viability at 5 µM ([2]; 24 h) of 113%. It also gave a viability at 10 µM ([2]; 24 h) of 71.8%, a viability at 15 µM ([2]; 24 h) of 64.8% and a viability at 20 µM ([2]; 24 h) of 55.7%. The viability at 25 µM ([2]; 24 h) was 40.6%, the viability at 30 µM ([2]; 24 h) was 28.7% and the “Lethality … (in words)” value ([2]; after 24 hours of incubation, any tested concentration) was “no longer significantly lethal”. For the same compound, the “Lethality … (in words)” value ([2]; incubated 30 min) was “not lethal”, the viability at 5 µM ([3]; 0.5 h) was 110% and the viability at 10 µM ([3]; 0.5 h) was 102%. The viability at 15 µM ([3]; 0.5 h) was 110%, the viability at 20 µM ([3]; 0.5 h) was 106% and the viability at 25 µM ([3]; 0.5 h) was 116%. The viability at 30 µM ([3]; 0.5 h) was 113%, the viability at 5 µM ([3]; 16 h) was 104% and the viability at 10 µM ([3]; 16 h) was 79.7%. The viability at 15 µM ([3]; 16 h) was 41.2%, the viability at 20 µM ([3]; 16 h) was 30.8% and the viability at 25 µM ([3]; 16 h) was 14.5%. The viability at 30 µM ([3]; 16 h) was 7.7%, the “Concentration at which significant and increasing lethality begins” value ([3]; 16 hour incubation) was at least 15 µM and the viability at 5 µM ([3]; 24 h) was 80.2%. For the same compound, the viability at 10 µM ([3]; 24 h) was 56.7%, the viability at 15 µM ([3]; 24 h) was 35.2% and the viability at 20 µM ([3]; 24 h) was 19.4%. The viability at 25 µM ([3]; 24 h) was 10.9%, the viability at 30 µM ([3]; 24 h) was 4.3% and the “Concentration at and above which significantly and increasingly lethal” value ([3]; 24 hour incubation) was at least 10 µM. For the same compound, the “Lethality … (in words)” value ([3]; any of the tested concentrations (time not given)) was “not lethal”.
